US20100048713A1, “COMPOUNDS ACTING ON THE SEROTONIN TRANSPORTER” (Aarhus Universitet, priority 2006, published 2010)

What was measured:
hSERT [1] = target: T1, hSERT (Homo sapiens, UniProt P31645); assay: 5-HT uptake assay with preincubation (whole cells); assay type: cell-based; conditions: whole cell assay with preincubation (title 45 min, text 60 min), 75 nM [3H]-5-HT, 10 min
T1 construct: expressed in transfected cells; the general 96-well protocol names Cos-1
Protocol: 7 μl Fugene-6 was mixed with 112 μl Dulbecco's modified Eagle's medium, and incubated at room temperature for 5 minutes. 4 μg of plasmid were added and the mixture was further incubated at least 15 minutes. Cos-1 cells were trypsinized and suspended in growth media, and the plasmid/Fugene-6 mixture was added followed by dispersion into a 96-well plate.
The 96-well plate was washed with PBSCM to remove DMEM prior to the assay. 50 μl PBSCM containing increasing concentrations of allosteric ligand were added to each well, and incubated for 60 min at room temperature under moderate agitation. […] The plate was subsequently incubated for 10 min at room temperature. The assay was terminated by washing once with PBSCM. The amount of accumulated [^3H]-5-HT was determined by solubilizing cells in scintillant (MicroScint 20) with direct counting of plates in a Packard TopCounter. Data was analyzed by GraphPad software.
We tested the allosteric ligands for their ability to inhibit/activate 5-HT-uptake in the whole-cell assay after 60 minutes preincubation.

hSERT [2] = target: T1, hSERT; assay: Binding assay on whole cells transfected with hSERT ([3H]-citalopram displacement); conditions: for EC50: whole cell assay, 35 nM [3H]-citalopram, 60 min room temperature, table title: 45 min preincubation
Protocol: The pcDNA3 plasmid vector containing the hSERT gene was used for transfection (see FIG. 6).
The 96-well plate was washed with PBSCM to remove DMEM prior to the assay. […] The plate was subsequently incubated for 60 min at room temperature. The assay was terminated by washing once with PBSCM. The amount of accumulated [^3H]-citalopram was determined by solubilizing cells in scintillant (MicroScint 20) with direct counting of plates in a Packard TopCounter. Data was analyzed by GraphPad software.

hSERT [3] = target: T1, hSERT; assay: Dissociation assay with [3H]-citalopram and hSERT membrane preparations; assay type: binding; conditions: for Stabilises dissociation of [3H]-citalopram: own effect (10 uM fluoxetine) (concentration which affects dissociation): 10 uM fluoxetine in dissociation buffer; for Stabilises dissociation of [3H]-citalopram: 15 uM citalopram (concentration which affects dissociation): 15 uM citalopram in dissociation buffer
Protocol: (§1) 17.5 μl Fugene-6 (Roche Molecular Biochemicals) were mixed with 280 μl Dulbecco's modified Eagle's medium, and incubated at room temperature for 5 minutes. 10 μg of plasmid were added and the mixture was further incubated at least 15 minutes. […] Prior to harvesting the dish was rinsed in PBS. Cells were harvested with a cell scraper in buffer 1 (50 mM Tris-base, 150 mM NaCl, 20 mM EDTA, pH 7.4). After centrifugation (3000 g at 4° C. for 10 mins), cells were suspended and homogenized with an IKA Ultra-Turrax from Rose Scientific Ltd (Edmonton, Alberta, Canada) for 20 s in buffer 1. Membranes were pelleted by ultracentrifugation (12 000 g at 4° C. for 15 min) and homogenization was repeated in buffer 1. Finally, after ultracentrifugation (12000 g, 4° C., 15 min) membranes were resuspended in 1 ml buffer 3 (50 mM Tris-base, 120 mM NaCl, 5 mM KCl, pH 7.4) and stored at −80° C.
Dissociation assay with [^3H]-citalopram and membrane preparations SERT-[^3H]-citalopram complex was formed by incubating hSERT membrane preparation and radioligand in buffer 3 during a 60 min incubation at 4° C. Radioligand was present at a concentration 10 times the Kd value. The time kinetic of dissociation was followed by adding 10 μL complex solution to 250 μL buffer 3 in 96-well plates and incubating subsequently for increasing time intervals at RT. Reactions were terminated by filtration through GF/C glass-fibre filters (Unifilter, Perkin Elmer Life Sciences), preincubated with 40 μl 0.5 % polyethyleneimine, using a Pachard Bell cell harvester, and subsequently washed three times with water. Filters were soaked in 40 μl Microscint 20 scintillation liquid (Pachard Bell). Bound radioactivity was determined by direct counting of plates using a Packard Bell microplate scintillation counter. Dissociation curves were obtained by plotting residual binding vs. time of dissociation.
The interaction of the allosteric ligand with the allosteric mechanism used by citalopram was studied by combining allosteric ligand and citalopram in the dissociation buffer. The interaction of the allosteric ligand with the radioligand was studied by combining the allosteric ligand and fluoxetine in the dissociation buffer.
(§2) Dissociation of [^3H]-citalopram from the serotonin transporter has been studied using membrane preparations from SERT-expressing cells. The off-rates of the radioligand were measured in the presence/absence of a fixed concentration of allosteric ligand. […] Additionally, the allosteric impact on the radioligand in the absence of citalopram, was studied by combining 10 μM fluoxetine and 200/2000 μM allosteric ligand in the dissociation buffer. […] The cells were incubated for 10 minutes before the assay was terminated by washing in PBSCM.

hSERT [4] = target: T1, hSERT; assay: Binding of [3H]-citalopram to membrane preparations; conditions: 35 nM [3H]-citalopram, 60 min RT
Protocol: as §1
A dilution series of the allosteric ligand was prepared in buffer 3 containing 70 nM [^3H]-citalopram. […] The mixture was incubated under moderate agitation at RT for 60 min. Reactions were terminated by filtration through GF/C glass-fibre filters (Unifilter, Perkin Elmer Life Sciences), preincubated with 40 μl 0.5 % polyethyleneimine, using a Pachard Bell cell harvester, and subsequently washed three times with water. Filters were soaked in 40 μl Microscint 20 scintillation liquid (Pachard Bell). Bound radioactivity was determined by direct counting of plates using a Packard Bell microplate scintillation counter. Displacing curves were obtained by plotting residual binding vs. log concentration of the displacing ligand.

hSERT [5] = target: T1, hSERT; assay: 5-HT uptake assay, 10 min incubation without preincubation; assay type: cell-based; conditions: 75 nM [3H]-5-HT, no preincubation
Protocol: Cells were grown for 48 h to confluency, and prior to uptake assay, plates were washed in PBSCM. All washing steps were carried out in an automatic plate washer. […] The assay was terminated by washing with PBSCM. The amount of accumulated [^3H]-5HT was determined by solubilizing cells in scintillant (MicroScint 20) with direct counting of plates in a Packard TopCounter. Data was analyzed by GraphPad software.
as §2

hSERT [6] = target: T1, hSERT; assay: Binding of [125I]-RTI-55 in whole cell assay, hSERT; conditions: displacement of [125I]-RTI-55
Text: RTI-55 was used to test for the compounds of the present invention to act as displacers of cocain.
Because RTI-55 (and cocaine) acts as inhibitors of SERT and DAT, we also performed the binding assay in cells transfected with human DAT.

T1 sequence (P31645 whole entry): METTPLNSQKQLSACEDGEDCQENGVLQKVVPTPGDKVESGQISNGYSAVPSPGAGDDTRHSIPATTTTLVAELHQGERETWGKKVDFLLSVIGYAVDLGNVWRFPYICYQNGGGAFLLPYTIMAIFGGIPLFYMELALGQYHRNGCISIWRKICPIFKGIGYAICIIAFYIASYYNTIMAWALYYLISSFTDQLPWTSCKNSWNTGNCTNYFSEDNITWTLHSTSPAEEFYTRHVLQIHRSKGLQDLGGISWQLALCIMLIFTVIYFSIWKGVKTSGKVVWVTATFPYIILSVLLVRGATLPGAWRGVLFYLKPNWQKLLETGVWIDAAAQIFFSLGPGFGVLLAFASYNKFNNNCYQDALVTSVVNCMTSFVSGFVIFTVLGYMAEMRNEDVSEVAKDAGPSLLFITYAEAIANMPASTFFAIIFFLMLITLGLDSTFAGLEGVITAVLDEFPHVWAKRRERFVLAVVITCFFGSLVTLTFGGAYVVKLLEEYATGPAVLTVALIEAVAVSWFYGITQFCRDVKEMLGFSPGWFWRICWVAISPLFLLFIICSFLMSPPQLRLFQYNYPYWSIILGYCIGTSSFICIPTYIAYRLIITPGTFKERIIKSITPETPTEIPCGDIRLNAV

Row | Structure (SMILES) | IC50 (hSERT [1]) | EC50 (hSERT [2]) | Stabilises dissociation of [3H]-citalopram: own effect (10 uM fluoxetine) (concentration which affects dissociation) (hSERT [3]) | Stabilises dissociation of [3H]-citalopram: 15 uM citalopram (concentration which affects dissociation) (hSERT [3]) | Binding of [3H]-citalopram (Bmax) (hSERT [4]) | 5-HT uptake (effect) (hSERT [5]) | 5-HT uptake (effect) (hSERT [5]; listed as PefaCl) | EC50 (hSERT [6]) | displacement of the radioligand (FIG. 3) (hSERT [2]; increasing concentrations, 60 minutes incubation at room temperature) | concentration that increases the allosteric impact on dissociation by 15 μM citalopram (FIG. 7) (hSERT [3]; 15 μM citalopram)
1 | NC(=O)c1ccccc1 [TS10] | 1150 µM | > 2000 µM | – | – | – | – | – | – | – | –
2 | NCCc1ccc(S(=O)(=O)Cl)cc1 [PefaCI, 4-(2-Aminoethyl)benzenesulfonyle cloride] | – | 1650 µM | 2000 µM | 2000 µM | No effect | Increase | increases 5-HT uptake | – | – | –
3 | C=CS(=O)(=O)c1ccccc1 [TS17] | > 2000 µM | 1050 µM | 2000 µM | 2000 µM | No effect | – | – | – | – | –
4 | O=P(O)(O)c1ccccc1 [TS4] | > 2000 µM | > 2000 µM | – | – | – | – | – | – | – | –
5 | CCOS(=O)(=O)c1cccc2ccccc12 [1-NSC react. EtOH, 1-Naphthalene sulfonic acid ethyl ester] | 110 µM | 533 µM | 300 µM | 300 µM | Displace | Inhibition | – | 462 µM | – | –
6 | Nc1cccc2c(N)cccc12 [TS19] | 422 µM | 950 µM | – | – | – | – | – | – | displaces the radioligand | –
7 | N#Cc1cccc2ccccc12 [TS21] | 60 µM | > 2000 µM | – | – | – | – | – | – | – | –
8 | Clc1cccc2ccccc12 [TS20] | 373 µM | > 2000 µM | 200 µM | 200 µM | No effect | Inhibition | – | – | – | –
9 | COS(=O)(=O)c1ccc(C)cc1 [TS6] | > 2000 µM | > 2000 µM | No effect | 2000 µM | No effect | Increase | – | – | – | –
10 | O=[N+]([O-])c1ccc(F)c2ccccc12 [TS25] | 25.9 µM | > 2000 µM | – | – | – | – | – | – | – | –
11 | O=S(=O)(Cl)Cc1ccccc1 [PMSC] | – | – | – | No effect | No effect | Increase | – | – | – | –
12 | O=S(=O)(c1ccccc1)c1ccccc1 [TS5] | > 2000 µM | > 2000 µM | – | – | – | – | – | – | – | –
13 | [C-]#[N+]CS(=O)(=O)c1ccc(C)cc1 [TS15] | > 2000 µM | > 2000 µM | 2000 µM | 2000 µM | No effect | No effect | – | – | – | –
14 | O=[N+]([O-])c1cccc2ccccc12 [TS22] | 2.9 µM | > 2000 µM | 200 µM | 200 µM | No effect | Inhibition | – | – | – | –
15 | O=S(=O)(Cl)c1ccccc1 [BSC, benzenesulfonyl chloride] | – | – | – | 3000 µM | No effect | Increase | – | – | – | –
16 | Nc1cccc2ccccc12 [TS18] | 458 µM | 1030 µM | – | – | – | – | – | – | – | –
17 | Cc1ccc2ccccc2c1[N+](=O)[O-] [TS23] | 15.9 µM | 1020 µM | – | – | – | – | – | – | – | –
18 | Nc1cccc2cccc(S(=O)(=O)O)c12 [TS11] | > 2000 µM | – | – | – | – | – | – | – | – | –
19 | CN(C)c1cccc2c(S(=O)(=O)Cl)cccc12 [TS7] | > 2000 µM | 1390 µM | – | – | – | – | – | – | – | –
20 | Cc1ccc(S(N)(=O)=O)cc1 [TS1] | > 2000 µM | > 2000 µM | 2000 µM | 200 µM | No effect | Increase | – | – | – | 2000 µM
21 | Cc1ccc(S(=O)(=O)N(C)N=O)cc1 [TS13] | > 2000 µM | > 2000 µM | 200 µM | 200 µM | displace | Increase | – | – | – | –
